According to publication PMC3100226 (Journal of Pain Research, 2011):

Columns and labels:
MAO-B = target: T1, MAO-B (Rattus norvegicus, UniProt P19643); assay: MAO-B binding
T1 sequence (P19643 1-520): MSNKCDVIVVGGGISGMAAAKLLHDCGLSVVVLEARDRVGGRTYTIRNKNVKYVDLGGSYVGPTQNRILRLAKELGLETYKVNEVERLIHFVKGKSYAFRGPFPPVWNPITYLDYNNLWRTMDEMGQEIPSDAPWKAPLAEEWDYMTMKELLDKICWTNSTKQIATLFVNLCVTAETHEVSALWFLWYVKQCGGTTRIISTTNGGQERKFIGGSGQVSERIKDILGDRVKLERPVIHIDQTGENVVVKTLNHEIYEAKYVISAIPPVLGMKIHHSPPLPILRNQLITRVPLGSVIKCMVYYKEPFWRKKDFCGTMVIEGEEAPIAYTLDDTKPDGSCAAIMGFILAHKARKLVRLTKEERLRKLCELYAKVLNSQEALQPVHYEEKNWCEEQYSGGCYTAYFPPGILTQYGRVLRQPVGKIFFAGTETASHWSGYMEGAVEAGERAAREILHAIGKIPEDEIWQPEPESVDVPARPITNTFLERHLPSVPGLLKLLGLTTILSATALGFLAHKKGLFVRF

I1 = I1 (Bos taurus, UniProt F1N322); assay: Receptor characterization panel: I1 binding; set-up: species or system bovine; details: read-out: 10 μM CR4056 (% effect), inhibition of specific binding
I1, sequence (F1N322 1-1508): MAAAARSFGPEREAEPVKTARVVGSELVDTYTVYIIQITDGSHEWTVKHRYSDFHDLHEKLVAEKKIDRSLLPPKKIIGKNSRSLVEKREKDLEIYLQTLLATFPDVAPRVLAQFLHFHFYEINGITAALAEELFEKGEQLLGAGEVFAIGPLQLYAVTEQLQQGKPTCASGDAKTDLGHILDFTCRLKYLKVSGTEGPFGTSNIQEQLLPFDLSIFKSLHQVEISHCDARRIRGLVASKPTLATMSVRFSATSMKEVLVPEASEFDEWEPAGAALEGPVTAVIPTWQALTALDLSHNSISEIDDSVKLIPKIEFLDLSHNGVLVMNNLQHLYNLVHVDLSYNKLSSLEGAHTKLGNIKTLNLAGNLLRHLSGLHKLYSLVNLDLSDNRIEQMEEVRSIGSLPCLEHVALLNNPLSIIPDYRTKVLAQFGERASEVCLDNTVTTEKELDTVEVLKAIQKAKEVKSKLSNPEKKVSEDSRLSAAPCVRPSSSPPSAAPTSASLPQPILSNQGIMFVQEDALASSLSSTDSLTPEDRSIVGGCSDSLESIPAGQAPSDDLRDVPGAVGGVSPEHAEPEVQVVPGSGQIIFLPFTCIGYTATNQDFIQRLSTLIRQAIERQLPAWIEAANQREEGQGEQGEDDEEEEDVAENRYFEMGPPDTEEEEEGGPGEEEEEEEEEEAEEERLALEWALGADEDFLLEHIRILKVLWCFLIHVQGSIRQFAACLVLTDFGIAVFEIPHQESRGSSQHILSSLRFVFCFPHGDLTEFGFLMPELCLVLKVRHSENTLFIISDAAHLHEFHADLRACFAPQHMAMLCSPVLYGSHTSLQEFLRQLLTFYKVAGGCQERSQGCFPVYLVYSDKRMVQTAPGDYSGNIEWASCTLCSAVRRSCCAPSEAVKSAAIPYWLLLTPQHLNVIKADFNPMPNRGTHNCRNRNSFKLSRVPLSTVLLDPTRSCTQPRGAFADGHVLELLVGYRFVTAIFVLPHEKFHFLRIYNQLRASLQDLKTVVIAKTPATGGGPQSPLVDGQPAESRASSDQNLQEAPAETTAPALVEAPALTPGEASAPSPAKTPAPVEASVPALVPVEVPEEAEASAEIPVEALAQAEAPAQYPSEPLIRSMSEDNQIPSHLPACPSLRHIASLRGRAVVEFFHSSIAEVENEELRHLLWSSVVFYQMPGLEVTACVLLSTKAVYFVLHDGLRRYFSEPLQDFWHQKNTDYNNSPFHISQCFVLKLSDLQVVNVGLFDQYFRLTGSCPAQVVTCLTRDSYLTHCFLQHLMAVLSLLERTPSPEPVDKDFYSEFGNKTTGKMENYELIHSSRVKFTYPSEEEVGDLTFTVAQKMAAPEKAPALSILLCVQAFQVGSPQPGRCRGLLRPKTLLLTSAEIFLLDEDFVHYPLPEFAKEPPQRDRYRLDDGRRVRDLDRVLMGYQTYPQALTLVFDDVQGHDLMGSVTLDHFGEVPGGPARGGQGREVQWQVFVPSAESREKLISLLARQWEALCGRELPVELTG

PI 3-Kδ = PI 3-Kδ (Homo sapiens, UniProt O00329); assay: Enzyme characterization panel: PI 3-Kδ; type: biochemical; details: data not shown
conscious rat = assay: Safety pharmacology, respiratory, conscious rat; type: in vivo; details: supra-pharmacological doses
PI 3-Kβ = PI 3-Kβ (Homo sapiens, UniProt P42338); assay: Enzyme characterization panel: PI 3-Kβ; type: biochemical; details: data not shown
TNF-α converting enzyme = TNF-α converting enzyme (Homo sapiens, UniProt P78536); assay: Enzyme characterization panel: TNF-α converting enzyme; type: biochemical; details: data not shown
TNF-α converting enzyme, sequence (P78536 215-824, species assumed): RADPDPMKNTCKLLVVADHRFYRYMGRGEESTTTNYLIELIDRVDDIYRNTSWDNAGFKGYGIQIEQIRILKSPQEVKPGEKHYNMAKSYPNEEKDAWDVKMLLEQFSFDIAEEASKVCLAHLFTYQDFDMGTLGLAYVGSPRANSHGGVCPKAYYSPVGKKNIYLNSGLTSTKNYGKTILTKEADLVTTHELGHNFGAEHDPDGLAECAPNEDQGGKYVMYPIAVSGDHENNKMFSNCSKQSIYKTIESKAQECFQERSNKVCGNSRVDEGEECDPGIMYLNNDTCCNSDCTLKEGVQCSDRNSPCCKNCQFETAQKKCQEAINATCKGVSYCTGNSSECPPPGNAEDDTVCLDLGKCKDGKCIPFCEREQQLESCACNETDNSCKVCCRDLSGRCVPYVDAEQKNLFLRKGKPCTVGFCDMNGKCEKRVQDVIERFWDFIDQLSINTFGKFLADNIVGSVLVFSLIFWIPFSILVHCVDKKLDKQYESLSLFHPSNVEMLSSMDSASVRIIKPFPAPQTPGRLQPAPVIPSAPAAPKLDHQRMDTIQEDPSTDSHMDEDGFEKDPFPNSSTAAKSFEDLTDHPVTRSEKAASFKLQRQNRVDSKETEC

GABA-A (muscimol site) = assay: Receptor characterization panel: GABA-A muscimol site binding; details: 10 μM; [3H]Muscimol; cerebral cortex/rat
human mTOR kinase = human mTOR kinase (Homo sapiens, UniProt P42345); assay: Enzyme characterization panel: mTOR kinase; type: biochemical; details: data not shown
PI 3-Kγ = PI 3-Kγ (Homo sapiens, UniProt P48736); assay: Enzyme characterization panel: PI 3-Kγ; type: biochemical; details: data not shown
PI 3-Kγ, sequence (P48736 whole entry, species assumed): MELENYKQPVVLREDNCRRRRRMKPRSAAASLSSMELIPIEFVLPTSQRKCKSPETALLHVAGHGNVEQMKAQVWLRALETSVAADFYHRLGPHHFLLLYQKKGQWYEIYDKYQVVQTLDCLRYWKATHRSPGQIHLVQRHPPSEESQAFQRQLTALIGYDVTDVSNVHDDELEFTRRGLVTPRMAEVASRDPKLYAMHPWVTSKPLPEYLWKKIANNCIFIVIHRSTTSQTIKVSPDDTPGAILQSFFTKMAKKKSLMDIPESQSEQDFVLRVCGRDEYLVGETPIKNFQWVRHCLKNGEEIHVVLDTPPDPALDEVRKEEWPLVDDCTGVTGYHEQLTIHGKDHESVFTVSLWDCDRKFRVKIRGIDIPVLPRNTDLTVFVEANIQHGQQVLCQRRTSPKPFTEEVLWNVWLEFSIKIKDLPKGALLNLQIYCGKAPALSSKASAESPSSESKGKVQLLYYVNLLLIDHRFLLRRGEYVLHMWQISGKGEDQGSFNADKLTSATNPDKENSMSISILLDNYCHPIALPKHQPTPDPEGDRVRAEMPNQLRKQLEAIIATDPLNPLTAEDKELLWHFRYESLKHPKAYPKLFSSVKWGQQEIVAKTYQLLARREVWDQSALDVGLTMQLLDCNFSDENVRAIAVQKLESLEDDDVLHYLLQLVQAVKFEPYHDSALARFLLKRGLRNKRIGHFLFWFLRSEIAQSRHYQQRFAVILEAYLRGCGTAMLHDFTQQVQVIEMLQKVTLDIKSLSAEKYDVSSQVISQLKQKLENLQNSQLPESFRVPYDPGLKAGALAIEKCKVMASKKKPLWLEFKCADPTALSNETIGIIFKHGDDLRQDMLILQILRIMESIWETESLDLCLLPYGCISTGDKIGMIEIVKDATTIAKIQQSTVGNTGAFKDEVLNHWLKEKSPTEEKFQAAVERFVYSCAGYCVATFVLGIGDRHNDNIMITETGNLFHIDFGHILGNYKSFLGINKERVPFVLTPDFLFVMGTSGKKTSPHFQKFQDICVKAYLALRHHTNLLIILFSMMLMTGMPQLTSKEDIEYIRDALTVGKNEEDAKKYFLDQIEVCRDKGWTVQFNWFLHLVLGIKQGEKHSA

[1] = system: endogenous norepinephrine (NE) levels; assay: In vivo quantification of endogenous norepinephrine tissue levels; details: rat
[2] = system: acid-induced muscle allodynia in rats; assay: Acid-induced muscle allodynia; type: in vivo; details: rat; for Mechanical threshold (grams) ± SEM, left paw (SX) / Mechanical threshold (grams) ± SEM, right paw (DX): day 6 after treatment, OS
CCK2 = target: T2, CCK2 (Cavia porcellus, UniProt H0VZC5); assay: Receptor characterization panel: CCK2 binding; set-up: species or system guinea pig; details: read-out: 10 μM CR4056 (% effect), inhibition of specific binding
T2 sequence (H0VZC5 1-426): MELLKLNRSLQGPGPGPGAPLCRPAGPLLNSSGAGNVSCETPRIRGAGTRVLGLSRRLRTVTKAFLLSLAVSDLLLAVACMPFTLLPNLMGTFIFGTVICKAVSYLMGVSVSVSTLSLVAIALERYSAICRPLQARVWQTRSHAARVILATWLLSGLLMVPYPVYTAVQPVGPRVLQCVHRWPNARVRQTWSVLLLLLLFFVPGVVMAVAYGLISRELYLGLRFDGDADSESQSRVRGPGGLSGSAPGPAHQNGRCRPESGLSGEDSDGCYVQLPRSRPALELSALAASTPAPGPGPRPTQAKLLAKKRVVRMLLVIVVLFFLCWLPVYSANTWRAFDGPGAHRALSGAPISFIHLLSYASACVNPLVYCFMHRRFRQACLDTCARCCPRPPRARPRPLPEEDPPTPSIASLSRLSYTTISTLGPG

conscious dog = assay: Safety pharmacology, cardiovascular, conscious dog; type: in vivo; details: supra-pharmacological doses
[3] = system: CFA-induced inflammatory pain in rats; assay: CFA-induced mechanical hyperalgesia; type: in vivo; details: rat; p.o., 24 hours after CFA
rats = assay: Diuretic effect in rats; type: in vivo, rat; details: pharmacological/toxicological dose range
[4] = target: catechol-O-methyl transferase (COMT) (Homo sapiens, UniProt P21964); assay: Enzyme characterization panel: COMT; type: biochemical; details: data not shown
catechol-O-methyl transferase (COMT), sequence (P21964 whole entry, species assumed): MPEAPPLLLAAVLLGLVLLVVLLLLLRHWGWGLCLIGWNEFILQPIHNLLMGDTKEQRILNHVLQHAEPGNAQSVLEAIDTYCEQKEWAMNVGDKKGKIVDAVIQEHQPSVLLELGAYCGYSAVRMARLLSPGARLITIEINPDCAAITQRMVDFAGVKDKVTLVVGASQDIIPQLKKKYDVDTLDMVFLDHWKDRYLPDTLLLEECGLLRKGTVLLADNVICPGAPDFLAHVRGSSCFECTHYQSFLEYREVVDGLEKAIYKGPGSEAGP

D2 = D2 (Rattus norvegicus, UniProt P61169); assay: Receptor characterization panel: D2 binding; details: read-out: 10 μM CR4056 (% effect), inhibition of specific binding
D2, sequence (P61169 whole entry): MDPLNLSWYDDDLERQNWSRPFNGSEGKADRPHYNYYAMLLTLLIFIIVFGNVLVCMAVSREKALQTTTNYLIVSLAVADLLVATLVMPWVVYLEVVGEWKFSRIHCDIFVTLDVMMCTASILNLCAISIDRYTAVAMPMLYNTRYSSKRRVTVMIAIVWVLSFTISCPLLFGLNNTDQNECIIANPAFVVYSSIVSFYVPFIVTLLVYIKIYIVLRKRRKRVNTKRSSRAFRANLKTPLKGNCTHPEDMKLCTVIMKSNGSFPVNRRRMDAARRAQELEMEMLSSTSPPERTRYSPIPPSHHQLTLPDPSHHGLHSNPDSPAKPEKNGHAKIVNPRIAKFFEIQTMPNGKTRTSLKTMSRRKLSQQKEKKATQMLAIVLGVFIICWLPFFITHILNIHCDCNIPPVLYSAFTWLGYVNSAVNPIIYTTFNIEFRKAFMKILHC

carbonic anhydrase II = carbonic anhydrase II (Homo sapiens, UniProt P00918); assay: Enzyme characterization panel: carbonic anhydrase II; type: biochemical; details: data not shown
[5] = system: locomotor activity of rats; assay: Open field test; type: in vivo; details: rat; 3–30 mg/kg oral, one hour after administration
BDZ (central) = assay: Receptor characterization panel: central BDZ binding; details: 10 μM; [3H]Flunitrazepam; cerebral cortex/rat
Sigma (σ1 + σ2) = assay: Receptor characterization panel: sigma binding; details: [3H]DTG, whole brain/rat
cycooxygenase-2 (COX2) = cycooxygenase-2 (COX2) (Homo sapiens, UniProt P35354); assay: Enzyme characterization panel: COX2; type: biochemical; details: data not shown
cycooxygenase-2 (COX2), sequence (P35354 18-604): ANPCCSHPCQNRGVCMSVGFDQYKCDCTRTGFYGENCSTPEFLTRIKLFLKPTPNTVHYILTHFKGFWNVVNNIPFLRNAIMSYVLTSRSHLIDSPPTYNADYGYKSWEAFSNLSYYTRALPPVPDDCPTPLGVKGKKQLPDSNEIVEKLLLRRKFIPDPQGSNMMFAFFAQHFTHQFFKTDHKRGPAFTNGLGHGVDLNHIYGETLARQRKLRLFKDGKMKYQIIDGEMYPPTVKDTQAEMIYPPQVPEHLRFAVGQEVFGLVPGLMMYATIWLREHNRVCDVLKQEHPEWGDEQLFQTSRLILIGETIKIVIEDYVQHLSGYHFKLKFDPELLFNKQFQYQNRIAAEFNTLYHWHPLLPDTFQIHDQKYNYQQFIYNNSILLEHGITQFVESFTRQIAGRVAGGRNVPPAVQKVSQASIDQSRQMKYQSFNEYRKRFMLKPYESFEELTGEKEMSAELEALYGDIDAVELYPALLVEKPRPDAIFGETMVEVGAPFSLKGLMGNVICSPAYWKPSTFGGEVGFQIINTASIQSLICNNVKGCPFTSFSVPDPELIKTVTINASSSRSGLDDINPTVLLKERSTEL

[6] = system: capsaicin-induced neurogenic/inflammatory pain in rats; assay: Capsaicin-induced mechanical hyperalgesia; type: in vivo; details: rat
[7] = sub-chronic (four days) oral 20 mg/kg once daily, versus vehicle

## c1ccc(-c2ncc3cc(-n4ccnc4)ccc3n2)cc1 [CR4056, 2-phenyl-6-(1H-imidazol-1yl)quinazoline]
MAO-B; rat cerebral membranes, [3H]Ro 19-6327 15 nM
  Concentrations for inhibition of MAO-B specific binding relative to MAO-A: two orders of magnitude higher
MAO-B; read-out: 10 μM CR4056 (% effect), inhibition of specific binding
  inhibition at 10 µM: 35%
I1
  inhibition at 10 µM: 23%
PI 3-Kδ
  Activity in enzyme characterization panel: inactive
Conscious rat
  Respiratory effects: tachypnea associated with a respiratory stimulant effect
PI 3-Kβ
  Activity in enzyme characterization panel: inactive
TNF-α converting enzyme
  Activity in enzyme characterization panel: inactive
GABA-A (muscimol site)
  10 μM CR4056 (% effect), inhibition of specific binding: 26%
Human mTOR kinase
  Activity in enzyme characterization panel: inactive
PI 3-Kγ
  Activity in enzyme characterization panel: inactive
[1]; oral 20 mg/kg
  Effect on NE levels, plasma: No effect
[1]; single oral dose 20 mg/kg, two hours after dosing
  Effect on NE levels, lumbar spinal cord: not statistically significant
[1]; single oral dose 20 mg/kg, two hours after dosing, versus vehicle
  Increase of endogenous NE levels, parieto-occipital cortex: 68.2% ± 14.1%
[1]; [7]
  Increase of NE levels, cerebral cortex: 63.1% ±4.2%
  Increase of NE levels, lumbar spinal cord: 51.3% ± 6.7%
[2]; 20 and 60 mg/kg oral
  Reversal of acidic saline induced allodynia: completely reversed
[2]; 6 mg/kg
  Mechanical threshold (grams) ± SEM, left paw (SX): 27.9 ± 1.1 grams
  Mechanical threshold (grams) ± SEM, right paw (DX): 28.3 ± 1.9 grams
[2]; 20 mg/kg
  Mechanical threshold (grams) ± SEM, left paw (SX): 37.1 ± 0.8 grams
  Mechanical threshold (grams) ± SEM, right paw (DX): 38.4 ± 1.7 grams
[2]; 60 mg/kg
  Mechanical threshold (grams) ± SEM, left paw (SX): 39.2 ± 1.6 grams
  Mechanical threshold (grams) ± SEM, right paw (DX): 37.4 ± 2.1 grams
CCK2
  inhibition at 10 µM: 16%
Conscious dog
  Cardiovascular effects: slight hypertensive effects associated with tachycardia
[3]
  ED100 (calculated), complete reversion of CFA-induced hyperalgesia: 22.3 mg/kg
rats
  Diuretic effect: dose-dependent diuretic effect
[4]
  Activity in enzyme characterization panel: inactive
D2
  inhibition at 10 µM: 25%
Carbonic anhydrase II
  Activity in enzyme characterization panel: inactive
[5]
  Locomotor activity levels in open field test: no statistical differences
BDZ (central)
  10 μM CR4056 (% effect), inhibition of specific binding: 21%
Sigma (σ1 + σ2)
  10 μM CR4056 (% effect), inhibition of specific binding: 18%
cycooxygenase-2 (COX2)
  Activity in enzyme characterization panel: inactive
[6]; 10 mg/kg oral, P < 0.001 versus vehicle
  Reversal of the decrease in withdrawal threshold caused by capsaicin: significantly reversed
[6]; 30 mg/kg oral
  Reversal of the effect of capsaicin: completely reversed
[6]; p.o.
  ED50, capsaicin-induced mechanical hyperalgesia, CR4056 alone: 4.13 mg/kg
  ED100, capsaicin-induced mechanical hyperalgesia: 17.9 mg/kg
